# Experimental data: the supplement of paper PMC11061612
# What was measured:
# DSH1 (Bladder Carcinoma) = test: combination Emax (second highest fraction inhibited in the dose matrix, 72 h); higher = more inhibition; extreme values may be limits of the assay
# Method in brief: (§1)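 Cell lines in DMEM/F12 or RPMI with 10% FBS were plated in 1536-well plates, held 24 hours at 37°C, 5% CO2, then given two-drug dose matrices for 72 hours (DMSO typically 0.2%). Viability was read by CellTiter-Glo 2.0 luminescence and scaled as inhibition from 0 (vehicle wells) to 1 (blank wells). Combination Emax is the second-highest inhibition in the matrix; Bliss excess is observed combination effect minus expected EA + EB − EA·EB, EA and EB being single-agent effects.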
# [1] = tested on: JiyoyeP-2003 (Burkitt's Lymphoma); test: as above
# Method in brief: as §1
Structure (SMILES),combination Emax (DSH1 (Bladder Carcinoma)),combination Emax [1]
"Cc1c2c(nn1C)CSCc1cc(n(C)n1)CSc1cc(c3ccccc3c1)OCCCc1c(C(=O)O)n(C)c3c-2c(Cl)ccc13 [AZD5991] + C1CN(CCC1(C(=O)N[C@@H](CCO)C2=CC=C(C=C2)Cl)N)C3=NC=NC4=C3C=CN4 [Capivasertib] (first compound max 1 µM, 7x7, partner max 3 µM)",0.927,0.857
"CC(=O)Nc1cccc(-n2c(=O)n(C3CC3)c(=O)c3c(Nc4ccc(I)cc4F)n(C)c(=O)c(C)c32)c1 [Trametinib] + Cc1nc(-c2cn3c(n2)-c2ccc(-c4cnn(C(C)(C)C(N)=O)c4)cc2OCC3)n(C(C)C)n1 [Taselisib] (first compound max 1 µM, 7x7, partner max 10 µM)",0.994,0.544
"CC1(C)CCC(CN2CCN(c3ccc(C(=O)NS(=O)(=O)c4ccc(NCC5CCOCC5)c([N+](=O)[O-])c4)c(Oc4cnc5[nH]ccc5c4)c3)CC2)=C(c2ccc(Cl)cc2)C1 [Venetoclax] + COc1cc(Nc2ncc3c(n2)-c2ccc(Cl)cc2C(c2c(F)cccc2OC)=NC3)ccc1C(=O)O [Alisertib] (first compound max 1 µM, 7x7, partner max 10 µM)",0.53,0.852
"CC1(C)CCC(CN2CCN(c3ccc(C(=O)NS(=O)(=O)c4ccc(NCC5CCOCC5)c([N+](=O)[O-])c4)c(Oc4cnc5[nH]ccc5c4)c3)CC2)=C(c2ccc(Cl)cc2)C1 [Venetoclax] + C[C@@H]1COCCN1C2=NC(=NC(=C2)C3(CC3)[S@](=N)(=O)C)C4=C5C=CNC5=NC=C4 [AZD6738] (first compound max 1 µM, 7x7, partner max 10 µM)",0.659,0.954
"CN(CCO)CC[C@H](CSc1ccccc1)Nc1ccc(S(=O)(=O)NC(=O)c2ccc(N3CCC([C@@H](O)c4ccccc4-c4ccc(Cl)cc4)CC3)cc2)cc1S(=O)(=O)C(F)(F)F [AZD4320] + C[C@@H](Nc1cc(F)cc(F)c1)c1cc(C(=O)N(C)C)cc2c(=O)cc(N3CCOCC3)oc12 [AZD8186] (first compound max 1 µM, 7x7, partner max 3 µM)",0.404,0.789
"CC1(C)CCC(CN2CCN(c3ccc(C(=O)NS(=O)(=O)c4ccc(NCC5CCOCC5)c([N+](=O)[O-])c4)c(Oc4cnc5[nH]ccc5c4)c3)CC2)=C(c2ccc(Cl)cc2)C1 [Venetoclax] + C[C@@H](Nc1cc(F)cc(F)c1)c1cc(C(=O)N(C)C)cc2c(=O)cc(N3CCOCC3)oc12 [AZD8186] (first compound max 1 µM, 7x7, partner max 3 µM)",0.282,0.527
"CN(CCO)CC[C@H](CSc1ccccc1)Nc1ccc(S(=O)(=O)NC(=O)c2ccc(N3CCC([C@@H](O)c4ccccc4-c4ccc(Cl)cc4)CC3)cc2)cc1S(=O)(=O)C(F)(F)F [AZD4320] + CN(C)CCCOc1ccc(-c2ccc3ncc4c(c3c2)n(C2CCOCC2)c(=O)n4C)cn1 [AZD0156] (first compound max 1 µM, 7x7, partner max 1 µM)",0.369,0.645
"CN(CCO)CC[C@H](CSc1ccccc1)Nc1ccc(S(=O)(=O)NC(=O)c2ccc(N3CCC([C@@H](O)c4ccccc4-c4ccc(Cl)cc4)CC3)cc2)cc1S(=O)(=O)C(F)(F)F [AZD4320] + CCN(CCO)CCCOc1ccc2c(Nc3cc(CC(=O)Nc4cccc(F)c4)[nH]n3)ncnc2c1 [AZD2811] (first compound max 1 µM, 7x7, partner max 1 µM)",0.819,0.827
"Cc1c2c(nn1C)CSCc1cc(n(C)n1)CSc1cc(c3ccccc3c1)OCCCc1c(C(=O)O)n(C)c3c-2c(Cl)ccc13 [AZD5991] + CN(C)CCCOc1ccc(-c2ccc3ncc4c(c3c2)n(C2CCOCC2)c(=O)n4C)cn1 [AZD0156] (first compound max 1 µM, 7x7, partner max 1 µM)",0.638,0.756
"Cc1c2c(nn1C)CSCc1cc(n(C)n1)CSc1cc(c3ccccc3c1)OCCCc1c(C(=O)O)n(C)c3c-2c(Cl)ccc13 [AZD5991] + C[C@@H]1COCCN1C2=NC(=NC(=C2)C3(CC3)[S@](=N)(=O)C)C4=C5C=CNC5=NC=C4 [AZD6738] (first compound max 1 µM, 7x7, partner max 10 µM)",0.919,0.965
"CN(CCO)CC[C@H](CSc1ccccc1)Nc1ccc(S(=O)(=O)NC(=O)c2ccc(N3CCC([C@@H](O)c4ccccc4-c4ccc(Cl)cc4)CC3)cc2)cc1S(=O)(=O)C(F)(F)F [AZD4320] + C[C@@H]1COCCN1C2=NC(=NC(=C2)C3(CC3)[S@](=N)(=O)C)C4=C5C=CNC5=NC=C4 [AZD6738] (first compound max 1 µM, 7x7, partner max 10 µM)",0.94,0.972
"Cc1c2c(nn1C)CSCc1cc(n(C)n1)CSc1cc(c3ccccc3c1)OCCCc1c(C(=O)O)n(C)c3c-2c(Cl)ccc13 [AZD5991] + Cn1cnc2c(F)c(Nc3ccc(Br)cc3Cl)c(C(=O)NOCCO)cc21 [Selumetinib] (first compound max 1 µM, 7x7, partner max 3 µM)",0.489,0.675
"CN(CCO)CC[C@H](CSc1ccccc1)Nc1ccc(S(=O)(=O)NC(=O)c2ccc(N3CCC([C@@H](O)c4ccccc4-c4ccc(Cl)cc4)CC3)cc2)cc1S(=O)(=O)C(F)(F)F [AZD4320] + Cc1cc2ncnn2cc1Nc1ncc2c(n1)n(C1CCOCC1)c(=O)n2C [AZD7648] (first compound max 1 µM, 7x7, partner max 10 µM)",0.586,0.639
"Cc1c2c(nn1C)CSCc1cc(n(C)n1)CSc1cc(c3ccccc3c1)OCCCc1c(C(=O)O)n(C)c3c-2c(Cl)ccc13 [AZD5991] + CCN(CCO)CCCOc1ccc2c(Nc3cc(CC(=O)Nc4cccc(F)c4)[nH]n3)ncnc2c1 [AZD2811] (first compound max 1 µM, 7x7, partner max 1 µM)",0.839,0.803
"C[C@@H](c1ccc2nccn2c1)n1nnc2ncc(-c3cnn(C)c3)nc21 [Savolitinib] + CN(CC[C@H](CSC1=CC=CC=C1)NC2=C(C=C(C=C2)S(=O)(=O)NC(=O)C3=CC=C(C=C3)N4CCC(CC4)[C@H](C5=CC=CC=C5C6=CC=C(C=C6)Cl)O)S(=O)(=O)C(F)(F)F)CCO [AZD4320] (first compound max 1 µM, 7x7, partner max 1 µM)",–,0.439
"CC1(C)CCC(CN2CCN(c3ccc(C(=O)NS(=O)(=O)c4ccc(NCC5CCOCC5)c([N+](=O)[O-])c4)c(Oc4cnc5[nH]ccc5c4)c3)CC2)=C(c2ccc(Cl)cc2)C1 [Venetoclax] + C=CCn1c(=O)c2cnc(Nc3ccc(N4CCN(C)CC4)cc3)nc2n1-c1cccc(C(C)(C)O)n1 [AZD1775] (first compound max 1 µM, partner max 1 µM)",0.48,0.954
"Cc1c2c(nn1C)CSCc1cc(n(C)n1)CSc1cc(c3ccccc3c1)OCCCc1c(C(=O)O)n(C)c3c-2c(Cl)ccc13 [AZD5991] + C=CCn1c(=O)c2cnc(Nc3ccc(N4CCN(C)CC4)cc3)nc2n1-c1cccc(C(C)(C)O)n1 [AZD1775] (first compound max 1 µM, partner max 1 µM)",0.791,0.987
"Cc1c2c(nn1C)CSCc1cc(n(C)n1)CSc1cc(c3ccccc3c1)OCCCc1c(C(=O)O)n(C)c3c-2c(Cl)ccc13 [AZD5991] + Cc1cc2ncnn2cc1Nc1ncc2c(n1)n(C1CCOCC1)c(=O)n2C [AZD7648] (first compound max 1 µM, 7x7, partner max 10 µM)",0.67,0.784
"CC1(C)CCC(CN2CCN(c3ccc(C(=O)NS(=O)(=O)c4ccc(NCC5CCOCC5)c([N+](=O)[O-])c4)c(Oc4cnc5[nH]ccc5c4)c3)CC2)=C(c2ccc(Cl)cc2)C1 [Venetoclax] + CN(C)CCCOc1ccc(-c2ccc3ncc4c(c3c2)n(C2CCOCC2)c(=O)n4C)cn1 [AZD0156] (first compound max 1 µM, 7x7, partner max 1 µM)",0.156,0.189
"CC1(C)CCC(CN2CCN(c3ccc(C(=O)NS(=O)(=O)c4ccc(NCC5CCOCC5)c([N+](=O)[O-])c4)c(Oc4cnc5[nH]ccc5c4)c3)CC2)=C(c2ccc(Cl)cc2)C1 [Venetoclax] + Cc1cc2ncnn2cc1Nc1ncc2c(n1)n(C1CCOCC1)c(=O)n2C [AZD7648] (first compound max 1 µM, 7x7, partner max 10 µM)",0.187,0.317
"CN(CCO)CC[C@H](CSc1ccccc1)Nc1ccc(S(=O)(=O)NC(=O)c2ccc(N3CCC([C@@H](O)c4ccccc4-c4ccc(Cl)cc4)CC3)cc2)cc1S(=O)(=O)C(F)(F)F [AZD4320] + C=CCn1c(=O)c2cnc(Nc3ccc(N4CCN(C)CC4)cc3)nc2n1-c1cccc(C(C)(C)O)n1 [AZD1775] (first compound max 1 µM, partner max 1 µM)",0.799,0.992
"CC1(C)CCC(CN2CCN(c3ccc(C(=O)NS(=O)(=O)c4ccc(NCC5CCOCC5)c([N+](=O)[O-])c4)c(Oc4cnc5[nH]ccc5c4)c3)CC2)=C(c2ccc(Cl)cc2)C1 [Venetoclax] + C1CN(CCC1(C(=O)N[C@@H](CCO)C2=CC=C(C=C2)Cl)N)C3=NC=NC4=C3C=CN4 [Capivasertib] (first compound max 1 µM, 7x7, partner max 3 µM)",0.416,0.591
"CC(=O)c1c(C)c2cnc(Nc3ccc(N4CCNCC4)cn3)nc2n(C2CCCC2)c1=O [Palbociclib] + CN(CC[C@H](CSC1=CC=CC=C1)NC2=C(C=C(C=C2)S(=O)(=O)NC(=O)C3=CC=C(C=C3)N4CCC(CC4)[C@H](C5=CC=CC=C5C6=CC=C(C=C6)Cl)O)S(=O)(=O)C(F)(F)F)CCO [AZD4320] (first compound max 10 µM, 7x7, partner max 1 µM)",–,0.795
"COc1nnc2ccc(N3CCC(c4ccc(OCCN5CCN(C)C(=O)[C@H]5C)cc4)CC3)nn12 [AZD5153] + CN(CC[C@H](CSC1=CC=CC=C1)NC2=C(C=C(C=C2)S(=O)(=O)NC(=O)C3=CC=C(C=C3)N4CCC(CC4)[C@H](C5=CC=CC=C5C6=CC=C(C=C6)Cl)O)S(=O)(=O)C(F)(F)F)CCO [AZD4320] (first compound max 1 µM, 7x7, partner max 1 µM)",–,0.893
